{"source": "patent US12351561B2", "about": "“Crystalline (2S,4R)-5-(5'-chloro-2'-fluoro-[1,1'-biphenyl]-4-yl)-2-(ethoxymethyl)-4-(3-hydroxyisoxazole-5-carboxamido)-2-methylpentanoic acid and uses thereof” (THERAVANCE BIOPHARMA R&D IP, LLC, priority 2016, dated 2025)", "key": {"[1]": {"test": "Assay 3.2: PK profile, oral bioavailability and renal excretion in human (SAD, 14C i.v. microtracer)", "format": "in vivo", "procedure": "(§1) A Phase 1 single-ascending dose (SAD) clinical trial of Compound I′ (Form I), which converts to or dissolves to provide its soluble form Compound I in the body, was conducted in order to assess neprilysin inhibition for the treatment of a range of cardiovascular and renal diseases, including, e.g., chronic kidney disease, diabetic nephropathy, acute and chronic heart failure, heart failure with reduced ejection fraction, heart failure with preserved ejection fraction, post-myocardial infarction asymptomatic left ventricular dysfunction (post-MI asymptomatic LVD), subacute heart failure and resistant and isolated systolic hypertension. Safety and tolerability, pharmacokinetic (support for QD/BID dosing and non-renal excretion), pharmacodynamic (test for target engagement biomarkers cGMP and ANP), food effect, and absolute oral bioavailability and renal elimination using a ^14C intravenous microtracer, inter alia, were tested.\n(§2) The Phase 1 study was a double-blind, randomized placebo-controlled single ascending dose study in healthy male and female volunteers randomized in a 4:1 ratio. The study enrolled 56 healthy volunteers over multiple weeks for the ascending-dose portion, which included cohorts (n=10/cohort of 8 active and 2 placebo) administered single ascending doses of 50 mg, 100 mg, 200 mg, 400 mg and 600 mg. A sixth cohort (n=6) was administered i.v. microtracer and oral doses of 10 μg and 100 mg, respectively."}, "[2]": {"target": "T1, NEP (Homo sapiens, UniProt P08473)", "T1 construct": "from tissue; host or cells: healthy human volunteers (in vivo)", "T1 sequence (P08473 whole entry)": "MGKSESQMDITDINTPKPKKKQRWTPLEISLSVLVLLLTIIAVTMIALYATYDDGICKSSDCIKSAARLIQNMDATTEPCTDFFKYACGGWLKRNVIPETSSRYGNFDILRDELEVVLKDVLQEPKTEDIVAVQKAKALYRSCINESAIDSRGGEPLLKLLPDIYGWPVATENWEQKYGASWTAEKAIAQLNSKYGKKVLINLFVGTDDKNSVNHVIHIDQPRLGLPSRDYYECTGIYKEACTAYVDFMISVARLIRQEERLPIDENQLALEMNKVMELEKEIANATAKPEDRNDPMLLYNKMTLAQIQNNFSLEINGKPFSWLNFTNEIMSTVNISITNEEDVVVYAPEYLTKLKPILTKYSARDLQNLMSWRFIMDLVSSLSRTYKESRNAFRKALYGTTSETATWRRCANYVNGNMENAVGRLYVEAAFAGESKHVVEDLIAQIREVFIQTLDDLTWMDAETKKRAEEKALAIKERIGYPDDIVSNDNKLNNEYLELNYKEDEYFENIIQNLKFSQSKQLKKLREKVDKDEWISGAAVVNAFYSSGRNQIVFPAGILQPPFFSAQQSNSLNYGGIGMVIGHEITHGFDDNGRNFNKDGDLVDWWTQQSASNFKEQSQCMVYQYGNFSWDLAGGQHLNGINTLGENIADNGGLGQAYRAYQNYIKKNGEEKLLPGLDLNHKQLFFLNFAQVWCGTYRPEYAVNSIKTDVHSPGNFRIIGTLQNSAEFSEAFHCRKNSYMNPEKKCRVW", "test": "Assay 3.1: NEP activity in human (cGMP), single-ascending dose study", "format": "in vivo", "procedure": "as §1, §2\nOne goal of this study was to determine the mechanism/duration of action of Compound I after dosing in humans."}, "[3]": {"target": "human neprilysin (NEP) (Homo sapiens, UniProt P08473)", "sequence (P08473 whole entry)": "as above", "test": "in vitro human neprilysin inhibitor activity (pKi)", "format": "biochemical", "text": "One measure of the ability of a compound to inhibit NEP activity is the inhibition constant (pKi). The pKi value is the negative logarithm to base 10 of the dissociation constant (Ki), which is typically reported in molar units. The compound of the invention has a pKi at NEP≥9.0.\nThe in vitro-to-in vivo extrapolation of drug behavior in a subject continues to improve (see, e.g., Chiba et al., AAPS J., 2009 June; 11 (2): 262-276). In the present invention, in vitro human neprilysin inhibitor activity was assessed in order to determine neprilysin inhibitory activity of Compound I and crystalline form I′. A threshold of pKi>9.0 was met. However, additional in vivo experiments were further performed in order to more accurately predict the behavior of Compound I and crystalline form I′ in a subject."}, "[4]": {"target": "T1, NEP", "test": "Assay 4.1: NEP activity in human (cGMP), multiple-ascending dose study", "format": "in vivo", "settings": "healthy adult and elderly subjects, 10-200 mg once daily, Day 14, over 24 h", "procedure": "The Phase 1 study was a double-blind, randomized placebo-controlled multiple ascending dose study in healthy male and female volunteers randomized in a 4:1 ratio. The study enrolled 50 healthy adult (19-55 years old) and elderly (65-80 years old) volunteers over multiple weeks for the ascending-dose portion, which included cohorts (n=10/cohort of 8 active and 2 placebo) administered (1) ascending doses of 50 mg, 100 mg, and 200 mg, (2) a dose of 10 mg studied in parallel with 200 mg for PK/PK, and (3) a dose of 100 mg for one elderly cohort. […] Additionally, renal elimination of Compound I was neglible after multiple dosing, e.g., <1% was observed on Day 1 and Day 14 for all subjects.\nPart of the MAD clinical studies was to determine the mechanism/duration of action of Compound I after dosing in humans."}, "[5]": {"test": "Assay 1: IV/PO pharmacokinetic study in monkeys", "format": "in vivo, male cynomolgus monkeys", "settings": "for bioavailability / AUC(0-t): cynomolgus monkey, plasma; for AUC(0-t): read-out: AUClast Mean; for CLlast Mean: monkey", "procedure": "A monkey PK study was performed with an appropriate mass of Compound I in volume of vehicle (e.g., 5% sodium bicarbonate, 5% dextrose in H2O, pH 7.4, for oral and IV and filtered through a […] PDVF syringe for IV) such that the final concentration was dosed at 1.0 mg/mL for both IV and PO.\nIntravenous doses of Compound I were administered through an indwelling catheter in the cephalic vein followed by a saline flush of approximately 3 mL. Intravenous doses were administered at a volume of 1 mL/kg. Oral doses were delivered into the stomach using a syringe and gavage tube followed by a water flush of approximately 10 mL. Oral doses were administered at a volume of 2 mL/kg. Blood samples were collected from each animal at each time point (pre-dose, 0.083 h, 0.25 h, 0.5 h, 1 h, 2 h, 4 h, 6 h, 8 h, 12 h, and 24 h) via the cephalic, femoral, or sphenous vein through […]. All samples were collected into K2EDTA tubes and placed on ice. Samples were processed to plasma by centrifugation (3200 rpm, 10 minutes, 5° C.), and acidified with a final concentration of 2% acetic acid. Aliquots of plasma were transferred to a 96-well plate tubes and stored frozen (−70° C.) prior to bioanalysis.\nPlasma concentrations of Compound I were determined by LC/MS/MS. Plasma study samples were vortexed and placed in a 96-well plate. The samples were extracted with 200 μL of acetonitrile with an internal standard. The extract was centrifuged for 10 minutes at 2809 RPM and 50 μL supernatant was mixed with 200 μL 0.2% formic acid in water. Samples (10-15 μL) were injected on a ThermoFisher HyPURITY™ (C18 50×2.1 mm) column with a flow rate of 0.35 mL/min. Mobile phase A consisted of water: acetonitrile: formic acid (95:5:0.1, v:v:v) and Mobile phase B consisted of methanol: acetonitrile: formic acid (50:50:0.1, v:v:v) (dog). Mobile phase A consisted of 0.2% formic acid in water and mobile phase B consisted of 0.2% formic acid in acetonitrile (rat and monkey). Pharmacokinetic parameters of Compound I were determined by non-compartmental analysis (Model 201 and Model 200 for IV and PO administration, respectively) using Phoenix WinNonlin Version 6.3 (Certara, Sunnyvale, CA) and using individual plasma concentration time profiles from 3 animals per treatment group.\nPlasma clearance was determined from the intravenous arm of the study, and represents the rate at which plasma is cleared of drug. It is equal to the dose divided by the area under the plasma concentration-time curve. In addition to plasma clearance, it is also essential for an orally administered drug to reach efficacious systemic levels following oral delivery. Oral bioavailability is a measurement of plasma exposures following oral administration relative to exposures following intravenous administration."}}, "note": "Like-named read-outs stand apart in the source and are kept apart here.", "data": [{"compound": "CCOC[C@](C)(C[C@@H](Cc1ccc(-c2cc(Cl)ccc2F)cc1)NC(=O)c1cc(O)no1)C(=O)O", "note": "[Compound I, (2S,4R)-5-(5′-Chloro-2′-fluoro-[1,1′-biphenyl]-4-yl)-2-(ethoxymethyl)-4-(3-hydroxyisoxazole-5-carboxamido)-2-methylpentanoic Acid]", "values": [{"measurement": "bioavailability", "setting": "[1]; both sexes, in vivo, po, 100 mg, human, SAD clinical trial", "value": "~80", "unit": "%"}, {"measurement": "pharmacokinetic profile", "setting": "[1]; healthy subjects, single doses 50-600 mg", "value": "dose-proportional"}, {"measurement": "renal elimination (of total administered dose)", "setting": "[1]; human, SAD clinical trial, confirmed by intravenous microtracer", "value": "< 1", "unit": "%"}, {"measurement": "time window of the highest cGMP levels", "setting": "[2]; healthy subjects, after a single dose", "value": "8 to 12", "unit": "h"}, {"measurement": "dose levels at which plasma cGMP dose response shows near maximal effect", "setting": "[2]; healthy subjects, single dose", "value": "≥ 100", "unit": "mg"}, {"measurement": "change in mean plasma cGMP from baseline", "setting": "[2]; healthy subjects, single dose 50-600 mg, over 24 hours", "value": "sustained increase in mean plasma cGMP over 24-hours"}, {"measurement": "cGMP in plasma and urine", "setting": "[2]; human, SAD clinical trial, over 24h", "value": "sustained elevations of cGMP over 24h in both plasma and urine"}, {"measurement": "Ki", "setting": "[3]", "value": "< 1", "unit": "nM"}, {"measurement": "change in mean plasma cGMP from baseline", "setting": "[4]", "value": "sustained increase in mean plasma cGMP over 24 h"}, {"measurement": "bioavailability", "setting": "[5]; po, higher doses (30 and 100 mg/kg), three different formulations, data not shown, read-out: mean bioavailability", "value": "55 to 83", "unit": "%"}, {"measurement": "bioavailability", "setting": "[5]; male, IV 1 mg/kg, PO 2 mg/kg, read-out: Oral Bioavailability Mean", "value": 41.8, "unit": "%"}, {"measurement": "AUC(0-t)", "setting": "[5]; male, IV, 1 mg/kg", "value": 2290, "unit": "ng·h/mL"}, {"measurement": "AUC(0-t)", "setting": "[5]; male, PO, 2 mg/kg", "value": 1910, "unit": "ng·h/mL"}, {"measurement": "CLlast Mean", "setting": "[5]; IV, 1 mg/kg", "value": 6.33, "unit": "mL/min/kg"}, {"measurement": "CLlast Mean", "setting": "[5]; PO, 2 mg/kg", "value": 21.8, "unit": "mL/min/kg"}]}]}
